From US20140357726A1, “USE OF PEGYLATED ALCOHOLS FOR THE TREATMENT OF ACTINIC KERATOSIS” (MERZ PHARMA GmbH & CO. KGaA, priority 2011, published 2014)

System: NHEK-cells
Test: Resazurin viability assay on primary normal human epidermal keratinocytes (cytolytic potential)
Format: cell-based
Details: metabolic activity as read-out (Resazurin-assay); eight concentrations up to 1 mM
Description: By using primary, normal human epidermal keratinocytes (NHEK, FIG. 1) the cytolytic potential of the drug compound was investigated.
The viability of the cells was monitored by their metabolic activity using the Resazurin-assay. Eight different concentrations (up to 1 mM) of polidocanol were investigated. Viability of the cells was plotted against the different concentration of test compound.
From the resulting sigmoid-curve the IC50 value for the cytolytic effect was determined and given in the respective figure. FIG. 1 depicts the relative viability of NHEK-cells vs. the concentration of test-compound using metabolic activity as read-out.

For Polidocanol, the “relative viability of NHEK-cells vs. the concentration of test-compound” value was “clear negative-impact”.
